What was measured:
[1] = target: Replicase polyprotein 1ab (Severe acute respiratory syndrome coronavirus 2) (UniProt P0DTD1); test: Inhibition of SARS-CoV-2 Main protease at 2 uM relative to control
[2] = target: Replicase polyprotein 1ab (Severe acute respiratory syndrome coronavirus 2, UniProt P0DTD1); test: (§1) Inhibition of SARS-CoV-2 Main protease
[3] = target: Replicase polyprotein 1ab (Severe acute respiratory syndrome coronavirus 2) (UniProt P0DTD1); test: as §1
[4] = Inhibition of Porcine epidemic diarrhea virus Main protease
[5] = Cytotoxicity against African green monkey Vero E6 cells assessed as reduction of cell viability; format: toxicity, cell-based, Vero C1008; conditions: chlorocebus sabaeus
[6] = tested on: SARS-CoV-2; test: Antiviral activity against SARS-CoV-2 infected in African green monkey Vero E6 cells assessed as inhibition of viral replication; format: functional, organism-based; conditions: Severe acute respiratory syndrome coronavirus 2, Vero C1008
[7] = tested on: Porcine epidemic diarrhea virus; test: Antiviral activity against Porcine epidemic diarrhea virus infected in African green monkey Vero E6 cells assessed as inhibition of viral replication; format: functional, organism-based; conditions: Vero C1008
[8] = Selectivity ratio of CC50 for cytotoxicity against African green monkey Vero E6 cells to EC50 for antiviral activity against SARS-CoV-2 infected in African green monkey Vero E6 cells; format: toxicity, cell-based, Vero C1008; conditions: read-out: Ratio CC50/EC50

Question: Which inhibition [1] does the source give for CC(=O)O[C@H](CC=C(C)C)C1=CC(=O)c2c(O)ccc(O)c2C1=O [ACETYLSHIKONIN] here?
Answer: > 50%

Question: What about the IC50 [2] of the same compound?
Answer: 350 nM

Question: With COc1ccc(-c2nc(N)n(C)c2SSc2c(-c3ccc(OC)cc3)nc(N)n2C)cc1 as the compound, how does the inhibition [1] read?
Answer: > 50%

Question: What about the inhibition [3] of the same compound?
Answer: Dose-Dependent Effect

Question: And the IC50 [2]?
Answer: 30 nM

Question: What about the IC50 [4] of the same compound?
Answer: 120 nM

Question: What about the CC50 [5] of the same compound?
Answer: 50200 nM

Question: What about the EC50 [6] of the same compound?
Answer: 4090 nM

Question: What about the EC50 [7] of the same compound?
Answer: 5680 nM

Question: And the selectivity ratio [8]?
Answer: > 10

Question: For CC(C)=CC[C@@H](OC(=O)CC(C)(C)O)C1=CC(=O)c2c(O)ccc(O)c2C1=O [BETA-HYDROXYISOVALERYLSHIKONIN], which inhibition [1] is on record?
Answer: > 50%

Question: And the IC50 [2]?
Answer: 1020 nM

— ChEMBL document CHEMBL5385945, “An ascidian Polycarpa aurata-derived pan-inhibitor against coronaviruses targeting Mpro” (Bioorg Med Chem Lett, 2024)
